From US7910622B2, “Modulation of bacterial quorum sensing with synthetic ligands” (Wisconsin Alumni Research Foundation, priority 2007, dated 2011)
Read-outs that look alike come from different tables or passages of the source.

How the values were obtained:
Assay in all cases: cell-based
LuxR [1] = molecular target: T1, LuxR (Aliivibrio fischeri, UniProt P35327); format: cell-based, Vibrio fischeri; settings: for V. fischeri-LuxR Inhibition [%]: 5 μM synthetic ligand against 5 μM OHHL; for V. fischeri-LuxR Inhibition [%] / inhibition at 5 µM: V. fischeri ES114 (Δ-luxI), normalized to OHHL; for inhibition at 5 µM: read-out: V. fischeri-LuxR Inhibition [%], 5 μM synthetic ligand against 5 μM OHHL; for Inhibition (%): V. fischeri-LuxR, Library C primary antagonism screen
T1 construct: a Δ-luxI derivative of V. fischeri ES114, in which the native lux operon behaves as the bioluminescent reporter; endogenous in cells; host or cells: V. fischeri ES114 (Δ-luxI)
T1 sequence (P35327 whole entry): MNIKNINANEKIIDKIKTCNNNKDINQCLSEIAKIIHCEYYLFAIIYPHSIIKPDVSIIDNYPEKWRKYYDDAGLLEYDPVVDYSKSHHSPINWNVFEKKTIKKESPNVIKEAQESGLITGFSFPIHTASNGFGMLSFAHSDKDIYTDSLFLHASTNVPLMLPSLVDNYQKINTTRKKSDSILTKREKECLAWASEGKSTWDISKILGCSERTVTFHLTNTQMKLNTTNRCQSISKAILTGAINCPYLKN
Experimental: (§1) Luminescence assays. For agonism assays, an appropriate amount of AHL stock solution was added into a 96-well plate. An overnight culture of E. coli or V. fischeri was diluted 1:10 with appropriate media (LB plus 10 μg/mL tetracycline for E. coli; LBS for V. fischeri). A 200-μL portion of the diluted culture was added to each well of the plate. Plates were grown for 4-8 h with shaking (200 rpm; 30° C. for E. coli and RT for V. fischeri). Luminescence was measured using a multilabel plate reader and normalized to cell density. […] All assays were performed in triplicate. Graphpad Prism software was used to calculate IC50 and EC50 values.
(§2) Vibrio fischeri assay procedures. […] An overnight culture of V. fischeri ES114 (WT, Δ-luxI or Δ-luxR) was diluted 1:10 with LBS medium. A-200 μL portion of the diluted culture was added to each well of the plate. Plates were grown at RT with shaking (200 rpm) until the OD600=0.35-0.4 (4-6 h). Luminescence then was measured and normalized to cell density per well. […] All assays were performed in triplicate. IC50 and EC50 values were calculated using GraphPad Prism software using a sigmoidal curve fit.
(§3) V. fischeri reporter gene assay protocols. […] An overnight culture of V. fischeri ES114 (D-luxI) was diluted 1:10 with LBS medium. A 200-μL portion of the diluted culture was added to each well of the multititer plate. Plates were grown at RT with shaking (200 rpm) until the OD600=0.35-0.4 (4-6 h). Luminescence then was measured and normalized to cell density per well.
(§4) Dose response reporter gene assays. […] IC50 and EC50 values were calculated using GraphPad Prism software (v. 4.0) using a sigmoidal curve fit.
as §3, with “(Δ-luxI)” for “(D-luxI)”, “A200 μL” for “A 200-μL”, “incubated” for “grown”, “RT” for “RT with shaking (200 rpm)”
as §4

LasR [2] = molecular target: T2, LasR (Pseudomonas aeruginosa, UniProt P25084); settings: for E. coli-LasR Activation [%]: 5 μM ligand; for E. coli-LasR Activation [%] / activation at 5 µM: E. coli DH5α (pJN105L pSC11), normalized to OdDHL; for activation at 5 µM: read-out: E. coli-LasR Activation [%], 5 μM ligand; for EC50: read-out: LasR EC50; for Activation (%): E. coli-LasR, Library C primary agonism screen
T2 construct: expressed in transfected cells; host or cells: E. coli DH5α (pJN105L pSC11), arabinose-induced
T2 sequence (P25084 whole entry): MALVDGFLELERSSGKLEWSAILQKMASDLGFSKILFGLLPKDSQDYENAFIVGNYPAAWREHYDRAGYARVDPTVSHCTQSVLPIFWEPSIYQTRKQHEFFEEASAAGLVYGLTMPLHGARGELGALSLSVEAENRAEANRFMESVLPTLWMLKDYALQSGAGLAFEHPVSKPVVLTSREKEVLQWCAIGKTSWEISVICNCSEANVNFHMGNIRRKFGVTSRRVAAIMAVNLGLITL
Experimental: (§5) E. coli LasR reporter gene assay protocols. […] An overnight culture of E. coli DH5a (pJN105L pSC11) grown at 37° C. was subculture by diluting 1/10 in fresh LB medium containing 100 μg/mL ampicillin and 15 μg/mL gentamicin and shaking at 37° C. until OD600=0.3. Arabinose (4 mg/mL) was then added to induce the LasR promoter and a 200 μL-portion of this culture was added to each well of the multititer plate containing AHLs. Plates were grown at 37° C. for 2 hours in a rotary shaking incubator (200 rpm; OD600=0.45). The cultures were then assayed for activity following the identical β-galactosidase assay protocols used in the A. tumefaciens reporter gene assays.
as §4
(§6) E. coli LasR reporter gene assay protocols. […] An overnight culture of E. coli DH5α (pJN105L pSC11) was diluted 1:10 with fresh LB medium containing 100 μg/mL ampicillin and 15 μg/mL gentamicin. This sub-culture was incubated at 37° C. until OD600=0.3 (4-6 h). Arabinose (4 mg/mL) was then added to induce the LasR promoter, and a 200 μL portion of this culture was added to each well of the multititer plate containing AHLs. Plates were incubated at 37° C. until OD600=0.45 (4-6 h). The cultures were then assayed for LasR activity following the identical β-galactosidase assay protocols used in the A. tumefaciens reporter gene assays (see above).
as §4

LuxR [3] = molecular target: T1, LuxR; design: species or system Vibrio fischeri; settings: for V. fischeri-LuxR Activation [%]: 200 μM ligand; for V. fischeri-LuxR Activation [%] / activation at 200 µM: V. fischeri ES114 (Δ-luxI), normalized to OHHL; for activation at 200 µM: read-out: V. fischeri-LuxR Activation [%], 200 μM ligand; for Activation (%): V. fischeri-LuxR, Library C primary agonism screen
Experimental: as §1, §2, §3, §4
as §3, with “(Δ-luxI)” for “(D-luxI)”, “A200 μL” for “A 200-μL”, “incubated” for “grown”, “RT” for “RT with shaking (200 rpm)”
as §4

TraR = molecular target: T3, TraR (Agrobacterium tumefaciens, UniProt P33905); settings: for A. tumefaciens-TraR Activation [%]: 10 μM ligand; for A. tumefaciens-TraR Activation [%] / A. tumefaciens-TraR Inhibition [%] / inhibition at 10 µM: A. tumefaciens WCF47 (pCF372), normalized to OOHL; for A. tumefaciens-TraR Inhibition [%]: 10 μM synthetic ligand against 100 nM OOHL; for activation at 10 µM: read-out: A. tumefaciens-TraR Activation [%]; for inhibition at 10 µM: read-out: A. tumefaciens-TraR Inhibition [%], 10 μM synthetic ligand against 100 nM OOHL; for Activation (%) / Inhibition (%): A. tumefaciens-TraR; for Activation (%): Library C primary agonism screen; for Inhibition (%): Library C primary antagonism screen
T3 construct: These strains lack their AHL synthase (I) genes, but retain their native R genes; endogenous in cells; host or cells: A. tumefaciens WCF47 (Δ-traI) with PtraI-lacZ plasmid pCF372
T3 sequence (P33905 whole entry): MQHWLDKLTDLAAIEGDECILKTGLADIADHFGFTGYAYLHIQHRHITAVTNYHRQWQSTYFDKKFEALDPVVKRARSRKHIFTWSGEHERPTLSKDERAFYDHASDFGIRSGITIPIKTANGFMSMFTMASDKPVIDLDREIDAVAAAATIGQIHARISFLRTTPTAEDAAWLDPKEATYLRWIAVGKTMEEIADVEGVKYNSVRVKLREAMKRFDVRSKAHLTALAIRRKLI
Experimental: A. tumefaciens reporter gene assay protocols. […] An overnight culture of A. tumefaciens WCF47 (pCF372) was diluted to an OD600 of 0.1 in fresh AB minimal medium containing 400 μg/mL octopine and 50 μg/mL streptomycin. A 200 μL-portion of the diluted culture was added to each well of the multititer plate containing AHLs. Plates were grown at 28° C. for 18-20 h in a rotary shaking incubator (200 rpm). The cultures were then assayed for β-galactosidase activity following the Miller assay method. Briefly, 200 μL aliquots of bacteria from each of the wells were added to wells of a polystyrene 96-well plate and the OD600 of each well was recorded. Next, 50 μL aliquots from each well were transferred to a solvent resistant 96-well plate containing 200 μL Z buffer, 8 μL CHCl3 and 4 μL 0.1% aq. sodium dodecylsulfate (SDS). This suspension was mixed via repetitive pipetting, after which the CHCl3 was allowed to settle. A 100-μL aliquot from each well was transferred to a fresh polystyrene 96-well plate, and 20 μL of substrate, o-nitrophenyl-β-D-galactopyranoside (ONPG, 4 μg/mL in phosphate buffer), was added at time zero. After the development of appropriate yellow color (ca. 15-35 min), the reaction was terminated by the addition of 50 μL of 1 M Na2CO3. Absorbance at 420 nm and 550 nm was measured for each well using a plate reader, and Miller units were calculated according to standard methods.
as §4
A. tumefaciens reporter gene assay protocols. […] An overnight culture of A. tumefaciens WCF47 (pCF372) was diluted 1:10 with fresh AB minimal medium containing 400 μg/mL octopine and 50 μg/mL streptomycin. A 200 μL portion of the diluted culture was added to each well of the multititer plate containing AHLs. Plates were incubated at 28° C. for 18-24 h. The cultures were then assayed for β-galactosidase activity following the Miller assay method. Briefly, 200 μL aliquots of bacteria from each of the wells were added to wells of a 96-well multititer plate, and the OD600 of each well was recorded. Next, 50 μL aliquots from each well were transferred to a solvent resistant 96-well multititer plate containing 200 μL Z buffer, 8 μL CHCl3 and 4 μL 0.1% aq. SDS. This suspension was mixed via repetitive pipetting, after which the CHCl3 was allowed to settle. A 100 μL aliquot from each well was transferred to a fresh 96-well multititer plate, and 20 μL of substrate, o-nitrophenyl-β-D-galactopyranoside (ONPG, 4 μg/mL in phosphate buffer), was added at time zero. After the development of appropriate yellow color (ca. 20-30 min), the reaction was terminated by the addition of 50 μL of 1 M Na2CO3. Absorbances at 420 nm and 550 nm were measured for each well using a plate reader, and Miller units were calculated according to standard methods.
as §4

LasR [4] = molecular target: T2, LasR; format: cell-based; settings: for E. coli-LasR Inhibition [%]: 5 μM synthetic ligand against 7.5 nM OdDHL; for E. coli-LasR Inhibition [%] / inhibition at 5 µM: E. coli DH5α (pJN105L pSC11), normalized to OdDHL; for inhibition at 5 µM: read-out: E. coli-LasR Inhibition [%], 5 μM synthetic ligand against 7.5 nM OdDHL; for Inhibition (%): E. coli-LasR, Library C primary antagonism screen
Experimental: as §5, §4, §6, §4

[5] = determined against 100 nM OOHL, read-out: TraR IC50

Compound | V. fischeri-LuxR Inhibition [%] (LuxR [1]) | E. coli-LasR Activation [%] (LasR [2]) | V. fischeri-LuxR Activation [%] (LuxR [3]) | A. tumefaciens-TraR Activation [%] (TraR) | A. tumefaciens-TraR Inhibition [%] (TraR) | E. coli-LasR Inhibition [%] (LasR [4]) | further results
O=C(Cc1ccc(N=Nc2ccccc2)cc1)NC1CCOC1=O (centres unmarked) [B22] | 63% | 1% | 3% | 0% | 9% | 13% | –
CCCCCCCCCCCC(=O)N[C@H]1CCOC1=O [A5, C12 AHL] | – | – | – | – | – | – | inhibition at 5 µM (LuxR [1]): 73%; activation at 5 µM (LasR [2]): ~85%; EC50 (LasR [2]): 40 nM; activation at 200 µM (LuxR [3]): 2%; activation at 10 µM (TraR): 1%; inhibition at 10 µM (TraR): 22%; inhibition at 5 µM (LasR [4]): -10%
C=CCCC(=O)N[C@H]1CCOC1=O [A23] | 18% | 0% | 2% | 0% | 5% | 12% | –
O=C(Cc1ccc(C(F)(F)F)cc1)N[C@H]1CCOC1=O [C20, 4-trifluoromethyl PHL] | – | – | – | – | – | – | Inhibition (%) (LuxR [1]): 78%; Activation (%) (LasR [2]): 0%; Activation (%) (LuxR [3]): 3%; Activation (%) (TraR): 2%; Inhibition (%) (TraR): 92%; IC50 (TraR; [5]): 810 nM; Inhibition (%) (LasR [4]): 26%
O=C(NC1CCOC1=O)c1ccc(N=Nc2ccccc2)cc1 (centres unmarked) [D20] | 46% | 0% | 2% | 0% | 4% | 12% | –
CCCCCCCCCCCCCCCC(=O)N[C@H]1CCOC1=O [A6] | 27% | 11% | 2% | 0% | 0% | 5% | –
D-enantiomer of OOHL [A24] | 7% | 0% | 2% | 4% | 6% | 16% | –
O=C(Cc1ccc([N+](=O)[O-])cc1)NC1CCOC1=O (centres unmarked) [B16, 4-nitro PHL] | – | – | – | – | – | – | inhibition at 5 µM (LuxR [1]): 47%; activation at 5 µM (LasR [2]): 0%; activation at 200 µM (LuxR [3]): ~25%; IC50 (TraR): 2250 nM; activation at 10 µM (TraR): 1%; inhibition at 10 µM (TraR): ~90%; inhibition at 5 µM (LasR [4]): 27%
4-methyl PHL [B24] | 58% | 0% | 1% | 3% | 21% | 11% | –
4-hydroxy PHL [C23] | – | – | – | – | – | – | Inhibition (%) (LuxR [1]): 12%; Activation (%) (LasR [2]): 0%; Activation (%) (LuxR [3]): 2%; Activation (%) (TraR): 0%; Inhibition (%) (TraR): 3%; Inhibition (%) (LasR [4]): 7%
CCCCCCCC(=O)N[C@H]1CCOC1=O [A3, C8 AHL] | – | – | – | – | – | 43% | IC50 (LuxR [1]; LuxR IC50, determined against 5 μM OHHL): 770 nM; inhibition at 5 µM (LuxR [1]): 86%; activation at 5 µM (LasR [2]): 1%; activation at 200 µM (LuxR [3]): 12%; IC50 (TraR; [5]): 770 nM; activation at 10 µM (TraR): 7%; inhibition at 10 µM (TraR): 83%; IC50 (LasR [4]; determined against 7.5 nM OdDHL, read-out: LasR IC50): 1750 nM; inhibition at 5 µM (LasR [4]): ≥ 50%
CCOc1ccc(CC(=O)N[C@H]2CCOC2=O)cc1 [B29] | 55% | 0% | 2% | 0% | 35% | 15% | –
O=C(/C=C/c1ccccc1)N[C@H]1CCOC1=O [A19] | 48% | 2% | 3% | 3% | 7% | 22% | –
4-N-tertbutoxycarbonyl-PHL [B25] | 33% | 27% | 2% | 0% | 11% | 10% | EC50 (LasR [2]): > 200000 nM
